Active and inactive are the calls of the source. The calls are words filed in the database; no cut-off is given here.
Legend:
HeLa [1] = assay: Activation of ESD K213A mutant (unknown origin) expressed in human HeLa cells transfected with p-EGFP at 0.1 uM; type: cell-based
[2] = target: T1, S-formylglutathione hydrolase (Homo sapiens) (UniProt P10768); assay: Activation of human ESD expressed in HEK293T cells transfected with pEGFP-N1 assessed as induction of protein mono ubiquitination at 1 to 5 uM after 6 hrs by immunoblotting analysis; type: cell-based; conditions: HEK-293T
T1 sequence (whole entry): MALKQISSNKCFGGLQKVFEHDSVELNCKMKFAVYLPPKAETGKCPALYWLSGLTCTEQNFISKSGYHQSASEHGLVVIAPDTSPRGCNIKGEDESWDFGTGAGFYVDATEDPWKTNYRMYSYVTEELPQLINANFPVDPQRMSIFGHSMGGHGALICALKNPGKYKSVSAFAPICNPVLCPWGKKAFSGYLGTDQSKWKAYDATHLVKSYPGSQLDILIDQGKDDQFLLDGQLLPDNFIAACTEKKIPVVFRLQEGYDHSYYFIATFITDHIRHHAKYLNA

[3] = target: T1, S-formylglutathione hydrolase (Homo sapiens); assay: Activation of human ESD expressed in HEK293T cells transfected with pEGFP-N1 assessed as increase in protein mono ubiquitination at 0.1 to 5 uM after 12 to 24 hrs by immunoblotting analysis; type: cell-based; conditions: HEK-293T
[4] = target: T1, S-formylglutathione hydrolase (Homo sapiens); assay: Activation of wild type human ESD expressed in HEK293T cells assessed as increase in protein mono ubiquitination at 0.1 to 1 uM incubated for 12 hrs by Western blot analysis; type: cell-based; conditions: HEK-293T
HeLa [5] = assay: Activation of ESD K213A mutant (unknown origin) expressed in human HeLa cells transfected with p-EGFP assessed as protein co-localization by fluorescence microscopic analysis; type: cell-based
HeLa [6] = assay: Activation of ESD K180A mutant (unknown origin) expressed in human HeLa cells transfected with p-EGFP at 0.1 uM; type: cell-based
[7] = target: T1, S-formylglutathione hydrolase (Homo sapiens); assay: Inhibition of IgG binding to ESD in human L02 cells by immuno precipitation assay; type: cell-based
[8] = target: T1, S-formylglutathione hydrolase (Homo sapiens); assay: Activation of human ESD expressed in HEK293T cells transfected with pEGFP-N1 assessed as induction of protein mono ubiquitination at 5 uM after 3 hrs by immunoblotting analysis; type: cell-based; conditions: HEK-293T
HEK-293T [9] = assay: Activation of ESD K213A mutant (unknown origin) expressed in HEK293T cells transfected with p-EGFP assessed as induction of protein mono ubiquitination at 0.1 to 1 uM measured up to 24 hrs by immunoblotting analysis; type: cell-based; conditions: Homo sapiens
HEK-293T [10] = assay: Activation of ESD K180A mutant (unknown origin) expressed in HEK293T cells transfected with p-EGFP assessed as increase in protein mono ubiquitination at 0.1 to 1 uM measured up to 36 hrs by Western blot analysis; type: cell-based; conditions: Homo sapiens
[11] = target: T1, S-formylglutathione hydrolase (Homo sapiens); assay: Activation of ESD in human L02 cells at 0.1 to 1 uM after 24 hrs; type: cell-based
[12] = target: T1, S-formylglutathione hydrolase (Homo sapiens); assay: Activation of human ESD expressed in HEK293T cells transfected with pEGFP-N1 assessed as protein redistribution in cytoplasm by fluorescence microscopic analysis; type: cell-based; conditions: HEK-293T
[13] = target: T1, S-formylglutathione hydrolase (Homo sapiens); assay: Activation of human ESD expressed in HEK293T cells transfected with pEGFP-N1 assessed as compound co-localization with protein by fluorescence microscopic analysis; type: cell-based; conditions: HEK-293T
HeLa [14] = assay: Activation of ESD K180A mutant (unknown origin) expressed in human HeLa cells transfected with p-EGFP assessed as compound co-localization with protein by fluorescence microscopic analysis; type: cell-based
HEK-293T [15] = assay: Activation of ESD K213A mutant (unknown origin) expressed in HEK293T cells transfected with p-EGFP assessed as increase in protein mono ubiquitination at 0.1 to 1 uM measured up to 36 hrs by Western blot analysis; type: cell-based; conditions: Homo sapiens
[16] = target: T1, S-formylglutathione hydrolase (Homo sapiens); assay: Activation of human ESD expressed in HEK293T cells transfected with pEGFP-N1 at 0.1 uM after 24 hrs; type: cell-based; conditions: HEK-293T
[17] = target: T1, S-formylglutathione hydrolase (Homo sapiens); assay: Binding affinity to human ESD expressed in HEK293T cells assessed as association rate constant; type: cell-based; conditions: HEK-293T
HEK-293T [18] = assay: Activation of ESD K180A mutant (unknown origin) expressed in HEK293T cells transfected with p-EGFP assessed as protein mono ubiquitination at 0.1 to 1 uM measured up to 24 hrs by Western blot analysis; type: cell-based; conditions: Homo sapiens
[19] = target: T1, S-formylglutathione hydrolase (Homo sapiens); assay: Inhibition of IgG binding to human ESD expressed in HEK293T cells; type: cell-based; conditions: HEK-293T
[20] = target: T2, S-formylglutathione hydrolase (Homo sapiens, UniProt P10768); assay: Binding affinity to human ESD expressed in HEK293T cells assessed as dissociation rate constant; type: cell-based; conditions: hek-293t
T2 sequence (P10768 whole entry): T1 sequence (whole entry)

[21] = target: T2, S-formylglutathione hydrolase; assay: Binding affinity to human ESD expressed in HEK293T cells assessed as dissociation constant; type: cell-based, HEK-293T
HEK-293T [22] = assay: Inhibition of IgG binding to ESD K180A mutant (unknown origin) expressed in HEK293T cells; type: cell-based; conditions: Homo sapiens
HEK-293T [23] = assay: Inhibition of IgG binding to ESD K213A mutant (unknown origin) expressed in HEK293T cells; type: cell-based; conditions: Homo sapiens

## Oc1ccc(Cl)cc1C1=NN(c2ccccn2)C(c2ccccc2)C1 (stereo not drawn)
HeLa [1]
  Activity: inactive
[2]
  Activity: Active
[3]
  Activity: Active
[4]
  Activity: Active
HeLa [5]
  Activity: inactive
HeLa [6]
  Activity: inactive
[7]
  inhibition: Dose-dependent effect
[8]
  Activity: Active
HEK-293T [9]
  Activity: inactive
HEK-293T [10]
  Activity: inactive
[11]
  Activity: Active
[12]
  Activity: Active
[13]
  Activity: Active
HeLa [14]
  Activity: inactive
HEK-293T [15]
  Activity: inactive
[16]
  Activity: Active
[17]
  Ka: 5.2 ×10⁵ /M/s
HEK-293T [18]
  Activity: inactive
[19]
  inhibition: Dose-dependent effect
[20]
  Kd: 4.4 ×10⁻⁴ /s
[21]
  Kd: 0.8 nM
HEK-293T [22]
  inhibition: inactive
HEK-293T [23]
  inhibition: inactive

— ChEMBL document CHEMBL4622837, “Finding the mechanism of esterase D activation by a small molecule” (Bioorg Med Chem Lett, 2020)
